From ChEMBL document CHEMBL4359894, “Novel class of 7-Oxabicyclo[2.2.1]heptene sulfonamides with long alkyl chains displaying improved estrogen receptor α degradation activity” (Eur J Med Chem, 2019)
Calls of active or inactive are those of the source. The rule behind the calls is not given here.

Key:
[1] = target: T1, Estrogen receptor (Homo sapiens) (UniProt P03372); experiment: Binding affinity to ERalpha (unknown origin) by competitive fluorometric receptor binding assay relative to estradiol
T1 sequence (whole entry): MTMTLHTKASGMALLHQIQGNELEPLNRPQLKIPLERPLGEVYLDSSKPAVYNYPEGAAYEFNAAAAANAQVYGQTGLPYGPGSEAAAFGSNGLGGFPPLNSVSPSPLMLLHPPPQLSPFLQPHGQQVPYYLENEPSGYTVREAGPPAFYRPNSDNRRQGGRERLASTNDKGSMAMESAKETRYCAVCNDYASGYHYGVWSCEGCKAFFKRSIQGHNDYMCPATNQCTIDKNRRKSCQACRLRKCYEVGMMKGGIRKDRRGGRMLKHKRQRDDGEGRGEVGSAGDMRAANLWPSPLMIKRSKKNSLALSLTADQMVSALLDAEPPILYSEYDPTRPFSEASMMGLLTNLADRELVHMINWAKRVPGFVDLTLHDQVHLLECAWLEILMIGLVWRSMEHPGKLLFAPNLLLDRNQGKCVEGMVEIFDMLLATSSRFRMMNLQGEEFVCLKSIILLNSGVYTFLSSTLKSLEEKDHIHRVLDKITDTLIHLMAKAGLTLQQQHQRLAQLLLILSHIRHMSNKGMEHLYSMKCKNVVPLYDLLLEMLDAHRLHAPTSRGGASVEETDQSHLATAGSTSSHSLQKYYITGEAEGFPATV

[2] = target: T1, Estrogen receptor (Homo sapiens); experiment: Induction of ERalpha degradation in human MCF7 cells assessed as decrease in ERalpha protein expression at 1 uM incubated for 24 hrs by Western blot analysis relative to control; type: cell-based; set-up: scale not given: the % may be the effect or the level left
MCF7 [3] = experiment: Antiproliferative activity against human MCF7 cell incubated for 72 hrs by MTT assay; type: functional, cell-based; details: MCF7, 72 h
[4] = target: T1, Estrogen receptor (Homo sapiens); experiment: Induction of ERalpha degradation in human MCF7 cells assessed as decrease in ERalpha protein expression at 5 uM incubated for 24 hrs by Western blot analysis relative to control; type: cell-based
MCF7 [5] = experiment: Induction of apoptosis in human MCF7 cells assessed as late apoptotic cells at 10 uM incubated for 24 hrs by Annexin V-FITC/propidium iodide staining-based flow cytometric analysis (reference value: 8.73%); type: functional
[6] = Volume of distribution at steady state in Sprague-Dawley rat at 3 mg/kg, iv administered via foot dorsal vein by LC-MS/MS analysis; type: ADME, organism-based; details: in vivo, read-out: Vdss
MCF7 [7] = experiment: Induction of apoptosis in human MCF7 cells assessed as late apoptotic cells at 1 uM incubated for 24 hrs by Annexin V-FITC/propidium iodide staining-based flow cytometric analysis (reference value: 8.73%); type: functional
MCF7 [8] = experiment: Induction of apoptosis in human MCF7 cells assessed as necrotic cells at 1 uM incubated for 24 hrs by Annexin V-FITC/propidium iodide staining-based flow cytometric analysis (reference value: 4.65%); type: functional
MCF7 [9] = experiment: Induction of apoptosis in human MCF7 cells assessed as necrotic cells at 5 uM incubated for 24 hrs by Annexin V-FITC/propidium iodide staining-based flow cytometric analysis (reference value: 4.65%); type: functional
[10] = Tmax in Sprague-Dawley rat at 3 mg/kg, iv administered via foot dorsal vein by LC-MS/MS analysis; type: ADME, organism-based; details: in vivo
MCF7 [11] = experiment: Induction of apoptosis in human MCF7 cells assessed as early apoptotic cells at 10 uM incubated for 24 hrs by Annexin V-FITC/propidium iodide staining-based flow cytometric analysis (reference value: 1.26%); type: functional
MCF7 [12] = experiment: Induction of apoptosis in human MCF7 cells assessed as necrotic cells at 10 uM incubated for 24 hrs by Annexin V-FITC/propidium iodide staining-based flow cytometric analysis (reference value: 4.65%); type: functional
MCF7 [13] = experiment: Induction of apoptosis in human MCF7 cells assessed as live cells at 1 uM incubated for 24 hrs by Annexin V-FITC/propidium iodide staining-based flow cytometric analysis (reference value: 85.37%); type: functional
[14] = Cmax in Sprague-Dawley rat at 3 mg/kg, iv administered via foot dorsal vein by LC-MS/MS analysis; type: ADME, organism-based; set-up: dose 3 mg/kg, route intravenous; details: in vivo
[15] = Half life in Sprague-Dawley rat at 3 mg/kg, iv administered via foot dorsal vein by LC-MS/MS analysis; type: ADME, organism-based; details: in vivo
MCF7 [16] = experiment: Induction of apoptosis in human MCF7 cells assessed as early apoptotic cells at 1 uM incubated for 24 hrs by Annexin V-FITC/propidium iodide staining-based flow cytometric analysis (reference value: 1.26%); type: functional
MCF7 [17] = experiment: Induction of apoptosis in human MCF7 cells assessed as live cells at 5 uM incubated for 24 hrs by Annexin V-FITC/propidium iodide staining-based flow cytometric analysis (reference value: 85.37%); type: functional
[18] = target: Estrogen receptor beta (Homo sapiens) (UniProt Q92731); experiment: Binding affinity to ERbeta (unknown origin) by competitive fluorometric receptor binding assay relative to estradiol
Chain of Estrogen receptor beta (Homo sapiens) (Q92731 whole entry): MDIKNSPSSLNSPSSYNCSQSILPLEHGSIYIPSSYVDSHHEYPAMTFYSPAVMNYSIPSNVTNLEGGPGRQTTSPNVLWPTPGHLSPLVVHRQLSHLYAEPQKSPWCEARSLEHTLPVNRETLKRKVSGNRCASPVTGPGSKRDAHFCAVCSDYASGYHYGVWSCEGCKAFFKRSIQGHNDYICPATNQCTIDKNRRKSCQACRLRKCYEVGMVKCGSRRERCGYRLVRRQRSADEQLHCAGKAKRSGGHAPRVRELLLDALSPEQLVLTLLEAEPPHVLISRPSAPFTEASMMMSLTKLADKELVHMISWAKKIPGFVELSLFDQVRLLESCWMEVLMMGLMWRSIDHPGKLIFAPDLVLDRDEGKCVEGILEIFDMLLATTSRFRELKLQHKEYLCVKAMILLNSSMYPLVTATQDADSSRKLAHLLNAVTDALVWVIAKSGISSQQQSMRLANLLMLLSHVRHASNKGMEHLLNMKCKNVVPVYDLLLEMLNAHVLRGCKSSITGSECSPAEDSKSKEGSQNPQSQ

[19] = target: T1, Estrogen receptor (Homo sapiens); experiment: Induction of ERalpha degradation in human MCF7 cells assessed as decrease in ERalpha protein expression at 0.5 uM incubated for 24 hrs by Western blot analysis; type: cell-based
[20] = Therapeutic index, ratio of IC50 for cytotoxicity against human MCF10A cells to IC50 for antiproliferative activity against human MCF7 cells; type: toxicity, cell-based; details: read-out: Ratio IC50
[21] = AUC (0 to infinity) in Sprague-Dawley rat at 3 mg/kg, iv administered via foot dorsal vein by LC-MS/MS analysis; type: ADME, organism-based; set-up: dose 3 mg/kg, route intravenous, time infinity; details: in vivo
[22] = Plasma clearance in Sprague-Dawley rat at 3 mg/kg, iv administered via foot dorsal vein by LC-MS/MS analysis; type: ADME, organism-based
MCF-10A = experiment: Cytotoxicity against human MCF10A cell incubated for 72 hrs by MTT assay; type: cell-based
[23] = target: T1, Estrogen receptor (Homo sapiens); experiment: Induction of ERalpha degradation in human MCF7 cells assessed as decrease in ERalpha protein expression at 5 uM incubated for 24 hrs in presence of proteasome inhibitor MG132 by Western blot analysis; type: cell-based
MCF7 [24] = experiment: Induction of apoptosis in human MCF7 cells assessed as late apoptotic cells at 5 uM incubated for 24 hrs by Annexin V-FITC/propidium iodide staining-based flow cytometric analysis (reference value: 8.73%); type: functional
MCF7 [25] = experiment: Induction of apoptosis in human MCF7 cells assessed as early apoptotic cells at 5 uM incubated for 24 hrs by Annexin V-FITC/propidium iodide staining-based flow cytometric analysis (reference value: 1.26%); type: functional
MCF7 [26] = experiment: Induction of apoptosis in human MCF7 cells assessed as live cells at 10 uM incubated for 24 hrs by Annexin V-FITC/propidium iodide staining-based flow cytometric analysis (reference value: 85.37%); type: functional

SMILES: CCCCCCOc1ccc(N(CC(F)(F)F)S(=O)(=O)[C@H]2C[C@H]3O[C@@H]2C(c2ccc(O)cc2)=C3c2ccc(O)cc2)cc1 (relative stereo)
- relative binding affinity (RBA) [1]: 3.11
- Activity [2]: 100%
- IC50 (MCF7 [3]): 0.77 µM
- Activity [4]: Active
- Activity (MCF7 [5]): 18.77%
- Vd [6]: 10.7 L/kg
- Activity (MCF7 [7]): 12.72%
- Activity (MCF7 [8]): 1.34%
- Activity (MCF7 [9]): 9.24%
- Tmax [10]: 4.8 min
- Activity (MCF7 [11]): 65.96%
- Activity (MCF7 [12]): 1.88%
- Activity (MCF7 [13]): 79.95%
- Cmax [14]: 964 ng/mL
- half-life [15]: 2.2 h
- Activity (MCF7 [16]): 5.99%
- Activity (MCF7 [17]): 12.95%
- relative binding affinity (RBA) [18]: 0.86
- Activity [19]: Active
- selectivity ratio [20]: 51
- AUC(0-inf) [21]: 529 ng·h/mL
- clearance [22]: 105 mL/min/kg
- IC50 (MCF-10A): 39.3 µM
- Activity [23]: inactive
- Activity (MCF7 [24]): 40.85%
- Activity (MCF7 [25]): 36.96%
- Activity (MCF7 [26]): 13.39%
